Data on one compound can be found in US20220383986A1, “Complex System for Contextual Spectrum Mask Generation Based on Quantitative Imaging” (The Board of Trustees of the University of Illinois, priority 2021, published 2022).

Assay [1] deals with CHO cells. In words: time-lapse SLIM recording of CHO cells with and without staurosporine. The format is cell-based, Chinese hamster. The settings on record: 1 μM staurosporine in medium, measured for 10 hours, 37° C. and 5% CO2.
Method: CHO cells were plated on a glass bottom 6-well plate for optimal confluency. In addition to NucBlue/NucGreen staining, 1 μM of staurosporine (apoptotic inducing reagent) solution was added to the culture medium. This potent reagent permeates cell membrane and disrupts protein kinase, cAMP, and lead to apoptosis in 4-6 hours. The cells were then measured by SLIM and epi-fluorescence microscopy. The cells were maintained in regular incubation condition (37° C. and 5% concentration of CO2) throughout the experiment. In addition, it is verified that the cells were not affected by necrosis and lytic cell death.
PICS on CHO cells and Evaluate the effect of lytic cell death: Before performing experiments on CHO cells, a preliminary study was conducted, as follows. Live cell cultures were prepared and split into the two groups. 1 μM of staurosporine was added into the medium of the experimental group, whereas the others were kept intact as control. Both control and experimental cells were measured with SLIM for 10 hours under regular incubation condition (37° C. and 5% concentration of CO2).
The subject of assay [2] is CHO cells. The settings on record: 1 μM staurosporine added to culture medium; general description of the reagent; cited from earlier work.

For `CN[C@@H]1C[C@H]2O[C@@](C)([C@@H]1OC)n1c3ccccc3c3c4c(c5c6ccccc6n2c5c31)C(=O)NC4` [staurosporine], the “cell characteristics in SLIM (QPI) images versus untreated control” value with CHO cells [1] is “cell volume decreased, and membrane ruptured or became detached”. Moreover, the time to apoptosis in the assay on CHO cells [2] is 4 to 6 h.
